Converted amounts (≈) assume the structure as drawn.
conditions: not given

| SMILES | logP | solubility |
| --- | --- | --- |
| COC(=O)c1ccccc1S(N)(=O)=O | 0.01 |  |
| CCCNC1=NC(=O)C(=Cc2ccc([N+](=O)[O-])o2)S1 | 1.24 |  |
| ClC1=C(Cl)C2(Cl)C(Cl)=C(Cl)C3CC1C(Cl)C32 (stereo unspecified) | 5.66 |  |
| Cn1cccc(O)c1=O | -0.4 |  |
| Cc1cc(Cc2ccc(Cl)cc2Cl)c(Cl)cc1Cl | 7.43 |  |
| CC(C)C(C#N)c1ccc([N+](=O)[O-])cc1 (stereo unspecified) | 2.8 |  |
| CCSCCn1cnc2c(=N)n(C)c(=O)[nH]c21 | 0 |  |
| ClC1(Cl)CC1(c1ccccc1)c1ccccc1 | 4.88 |  |
| CCCCCCOCCOCCO | 1.7 |  |
| ClC1=C(Cl)C2(Cl)C(CBr)CC1(Cl)C2(Cl)Cl (stereo unspecified) | 5.9 |  |
| CC(=O)OC1C=CC2C3Cc4ccc(O)c5c4C2(CCN3C)C1O5 (stereo unspecified) | 1.55 |  |
| CCCCCCOC(=O)c1ccccc1C(=O)OCCCCCC | 6.82 |  |
| CCCOC(=O)c1ccccc1O | 3.8 |  |
| C[Si]1(C)O[Si](C)(C)O[Si](C)(C)O[Si](C)(C)O[Si](C)(C)O1 | 8.03 |  |
| NS(=O)(=O)c1cc2cc(CNCCO)sc2s1 | -0.72 |  |
| Cc1c(Cl)cc(C(C)C)c(Cl)c1Cl | 6.2 |  |

| SMILES | logP | solubility |
| --- | --- | --- |
| CC(C)(C)[C@@H](O)[C@H](Cc1ccc(Cl)cc1Cl)n1cncn1 | 3.8 |  |
| OCc1ccc(F)cc1 | 1.36 |  |
| CN(C)C(=O)Nc1ccc(Oc2ccc(Cl)cc2)cc1 | 3.7 |  |
| CC(C)OC(C)(C)C | 2.14 |  |
| CC(C)Nc1nc(N)nc(Cl)n1 | 1.51 | 1.97 mM (≈ 369 µg/mL) |
| NS(=O)(=O)c1cc2cc(CN3CCOCC3)sc2o1 | 0.88 |  |
| Cc1nc2c(N)ncnc2n1C1OC(CO)CC1F (stereo unspecified) | 0.1 |  |
| O=C1OC(=Nc2ccc(Cl)cc2)C2=C1CCCC2 | 3.84 |  |
| CC(=O)OCN1C(=O)c2ccccc2C1=O | 1.15 |  |
| Cc1ccc(S(=O)(=O)O)cc1 |  | 3600 mM (≈ 620000 µg/mL) |
| CN(C(=O)C(Cl)Cl)c1ccc(O)cc1 | 1.78 |  |
| Cn1c(CC(=O)O)cnc1C(=O)c1ccc([N+](=O)[O-])cc1 | 0.86 |  |
| Cc1cn(C2CC(O)C(CN)O2)c(=O)[nH]c1=O (stereo unspecified) | -2.05 |  |
| COc1ccc2sc(C(=O)Nc3nnn[nH]3)c(OC(C)C)c2c1 | 1.78 |  |
| Cc1ccc(C(C)C)c(OCCN(C)C)c1 | 3.79 |  |
| Clc1cc(Cl)c(Oc2ccccc2)cc1Cl | 5.44 |  |

same assay, conditions: 22 °C

| SMILES | solubility |
| --- | --- |
| CN(C)C(=O)Nc1cccc(C(F)(F)F)c1 | 0.366 mM (≈ 85 µg/mL) |
| ClC=CCCl (mixture of isomers) | 14.5 mM |

same assay, conditions: 22.0 °C

| SMILES | log10 OH rate constant (cm³/molecule/s) |
| --- | --- |
| CC(C)CO[N+](=O)[O-] | -12 |

same assay, conditions: 23 °C

| SMILES | solubility |
| --- | --- |
| C[Si]1(C)O[Si](C)(C)O[Si](C)(C)O[Si](C)(C)O[Si](C)(C)O1 | 4.58e-05 mM (≈ 0.017 µg/mL) |

same assay, conditions: 23.0 °C

| SMILES | log10 OH rate constant (cm³/molecule/s) |
| --- | --- |
| c1ccc2c(c1)ccc1ccccc12 | -10.9 |
| O=C1CC=CO1 | -10.4 |

same assay, conditions: 24.0 °C

| SMILES | log10 OH rate constant (cm³/molecule/s) |
| --- | --- |
| c1ccc2cnccc2c1 | -11.1 |

same assay, conditions: 25 °C

| SMILES | solubility |
| --- | --- |
| Oc1nc(O)nc(O)n1 | 15.5 mM (≈ 2000 µg/mL) |
| CC(C)CO[N+](=O)[O-] | 11.2 mM (≈ 1330 µg/mL) |
| O=C1c2ccccc2C(=O)c2c(O)c(O)cc(O)c21 | 0.025 mM (≈ 6.4 µg/mL) |
| O=C(O)CCCOc1cc(Cl)c(Cl)cc1Cl | 0.148 mM (≈ 42 µg/mL) |
| CC(O)COc1ccccc1 (stereo unspecified) | 72.3 mM (≈ 11000 µg/mL) |
| CC(CCc1ccccc1)NCC(O)c1ccc(O)c(C(N)=O)c1 (stereo unspecified) | 0.356 mM (≈ 117 µg/mL) |
| NS(=O)(=O)c1cc2c(s1)SCCC2=O | 0.281 mM (≈ 70 µg/mL) |
| CCOP(=S)(OCC)SCSC(C)(C)C | 0.0176 mM (≈ 5.07 µg/mL) |
| C=Cc1cccc(C)c1 | 0.753 mM (≈ 89 µg/mL) |
| CCN(N=O)C(N)=O | 111 mM (≈ 13000 µg/mL) |
| Nc1ccccc1Cl | 64 mM (≈ 8160 µg/mL) |
| Oc1cc(Cl)c(Cl)cc1Cl | 6.08 mM (≈ 1200 µg/mL) |
| FC(F)(Cl)Cl | 2.32 mM (≈ 280 µg/mL) |
| CCCCCC1CCCC1 | 0.00082 mM (≈ 0.115 µg/mL) |
| OCCNc1ccccc1 | 335 mM (≈ 46000 µg/mL) |
| Clc1cccc(Cl)c1Cl | 0.0992 mM (≈ 18 µg/mL) |
| CCCCCCOC(=O)c1ccccc1C(=O)OCCCCCC | 0.000149 mM (≈ 0.05 µg/mL) |

same assay, conditions: 25.0 °C

| SMILES | log10 OH rate constant (cm³/molecule/s) |
| --- | --- |
| CCCN(CCC)C(=O)SCC | -10.5 |
| O=CC(Cl)(Cl)Cl | -11.8 |
| FC(F)OC(C(F)(F)F)C(F)(F)F | -13.1 |
| CC(C)CCO | -10.9 |
| CCCC=O | -10.6 |
| C1CC2CCCC2C1 (stereo unspecified) | -11 |
| C=CC(C)(C)O | -10.2 |
| FC(Br)C(F)(F)F (stereo unspecified) | -13.8 |
| c1cc2c3c(cccc3c1)CC2 | -10.2 |
| FC(F)OC(Cl)C(F)(F)F (stereo unspecified) | -13.8 |
| C=C(C)OC(C)=O | -10.2 |
| C[Si]1(C)O[Si](C)(C)O[Si](C)(C)O[Si](C)(C)O[Si](C)(C)O1 | -11.8 |
| O=CC(Cl)Cl | -11.6 |

same assay, conditions: 27.0 °C

| SMILES | log10 OH rate constant (cm³/molecule/s) |
| --- | --- |
| CCC(=O)N(C)C | -10.7 |
| Cc1ccc(C)o1 | -9.88 |
| O=Cc1ccoc1 | -10.3 |
| CCc1ccco1 | -9.97 |

same assay, conditions: 30 °C

| SMILES | solubility |
| --- | --- |
| BrC(Br)(Br)Br | 0.724 mM (≈ 240 µg/mL) |

same assay, conditions: pH 7.4

| SMILES | logD |
| --- | --- |
| N[C@@H](Cc1ccc(N(CCCl)CCCl)cc1)C(=O)O | -0.52 |
